Patent US20250101436A1, “APTAMERS AND SMALL MOLECULE LIGANDS” (MeiraGTx UK II Limited, priority 2021, published 2025)

Tested on: N5-12G6 riboswitch
Assay: Firefly luciferase assay, N5-12G6 riboswitch in HEK293 cells
Settings: 12G6 riboswitch, luciferase, HEK293, 2 μM
Method: Transfection: 3.5×10^4 human embryonic kidney (HEK) 293 cells were plated in a 96-well flat bottom plate the day before transfection. Plasmid DNA (500 ng) was added to a tube or a 96-well U-bottom plate. Separately, TransIT-293 reagent (Mirus; 1.4 L) was added to 50 μL Optimum I media (Life Technologies) and allowed to sit for 5 minutes at room temperature (RT). Then, 50 μL of this diluted transfection reagent was added to the DNA, mixed, and incubated at RT for 20 min. Finally, 7 μL of this solution was added to a well of cells in the 96-well plate. Four hours after transfection, medium containing transfection solution was replaced by medium with either TPP or fursultiamine as aptamer ligands.
Firefly luciferase assay of cultured cells: Twenty-four hours after media change, plates were removed from the incubator, and equilibrated to RT for several minutes on a lab bench, then aspirated. Glo-lysis buffer (Promega, 100 μL, RT) was added, and the plates allowed to remain at RT for at least 5 minutes. Then, the well contents were mixed by 50 μL trituration, and 20 μL of each sample was mixed with 20 μL of bright-glo reagent (Promega) that had been diluted to 10% in glo-lysis buffer. 96 wells were spaced on an opaque white 384-well plate. Following a 5 min incubation at RT, luminescence was measured using a Tecan machine with 500 ms read time. The luciferase activity was expressed as mean arbitrary light units (ALU)±S.D., and fold induction was calculated as the quotient of the luciferase activity obtained from cells with TPP or analog compound treatment divided by the luciferase activity obtained from cells without TPP or analog compound treatment.

In the case of `Fc1cc(CNc2cncc(Cl)c2N2CCNCC2)cc2nccnc12` [compound 053, 5-chloro-N-((8-fluoroquinoxalin-6-yl)methyl)-4-(piperazin-1-yl)pyridin-3-amine], the “Fold induction 2 μM (HEK)” value is reported as 16.8 fold.

Same assay, conditions: Homo sapiens, HEK293, read-out: Fold induction 2 μM (HEK), 12G6 riboswitch, luciferase, HEK293, 2 μM

In order of rising fold induction at 2 µM:
1. N#Cc1ccc(N2CCNCC2)c(NCc2ccc3nccnc3c2)c1 [compound 048, 4-(piperazin-1-yl)-3-((quinoxalin-6-ylmethyl)amino)benzonitrile]  1
2. c1cc(N2CC3(CNC3)C2)c(NCc2ccc3nccnc3c2)cn1 [compound 046, N-(quinoxalin-6-ylmethyl)-4-(2,6-diazaspiro[3.3]heptan-2-yl)pyridin-3-amine]  1.6
3. C[C@@H]1CN(c2ccncc2NCc2cc(F)c3nccnc3c2)CCN1 [compound 060, (R)—N-((8-fluoroquinoxalin-6-yl)methyl)-4-(3-methylpiperazin-1-yl)pyridin-3-amine]  1.7
4. CN(C)CCOc1ccncc1NCc1ccc2nccnc2c1 [compound 047, 4-(2-(dimethylamino)ethoxy)-N-(quinoxalin-6-ylmethyl)pyridin-3-amine]  2.7
5. Fc1nccc(N2CCNCC2)c1NCc1ccc2nccnc2c1 [compound 051, 2-fluoro-4-(piperazin-1-yl)-N-(quinoxalin-6-ylmethyl)pyridin-3-amine]  2.7
6. C[C@H]1CNCCN1c1ccncc1NCc1cc2nccnc2cc1Cl [compound 063, (S)—N-((7-chloroquinoxalin-6-yl)methyl)-4-(2-methylpiperazin-1-yl)pyridin-3-amine]  2.7
7. Clc1cncc(NCc2cc(Cl)c3nccnc3c2)c1N1CCNCC1 [compound 055, 5-chloro-N-((8-chloroquinoxalin-6-yl)methyl)-4-(piperazin-1-yl)pyridin-3-amine]  4.1
8. Clc1cc(CNc2cnccc2N2CCNCC2)cc2nccnc12 [compound 049, N-((8-chloroquinoxalin-6-yl)methyl)-4-(piperazin-1-yl)pyridin-3-amine]  5.7
9. C[C@H]1CNCCN1c1c(Cl)cncc1NCc1ccc2nccnc2c1 [compound 061, (S)-5-chloro-4-(2-methylpiperazin-1-yl)-N-(quinoxalin-6-ylmethyl)pyridin-3-amine]  6
10. C[C@@H]1CN(c2ccncc2NCc2cc3nccnc3cc2Cl)CCN1 [compound 058, (R)—N-((7-chloroquinoxalin-6-yl)methyl)-4-(3-methylpiperazin-1-yl)pyridin-3-amine]  6.1
11. C[C@@H]1CNCCN1c1ccncc1NCc1cc2nccnc2cc1Cl [compound 062, (R)—N-((7-chloroquinoxalin-6-yl)methyl)-4-(2-methylpiperazin-1-yl)pyridin-3-amine]  8
12. Clc1cc2nccnc2cc1CNc1cncc(Cl)c1N1CCNCC1 [compound 054, 5-chloro-N-((7-chloroquinoxalin-6-yl)methyl)-4-(piperazin-1-yl)pyridin-3-amine]  10.6
13. c1cc(OC2CCNCC2)c(NCc2ccc3nccnc3c2)cn1 [compound 045, 4-(piperidin-4-yloxy)-N-(quinoxalin-6-ylmethyl)pyridin-3-amine]  12
14. C[C@@H]1CN(c2c(Cl)cncc2NCc2ccc3nccnc3c2)CCN1 [compound 056, (R)-5-chloro-4-(3-methylpiperazin-1-yl)-N-(quinoxalin-6-ylmethyl)pyridin-3-amine]  12.9
15. Clc1cc(CNc2cnccc2OC2CNC2)cc2nccnc12 [compound 064, 4-(azetidin-3-yloxy)-N-((8-chloroquinoxalin-6-yl)methyl)pyridin-3-amine]  15
16. C[C@H]1CN(c2ccncc2NCc2cc(F)c3nccnc3c2)CCN1 [compound 059, (S)—N-((8-fluoroquinoxalin-6-yl)methyl)-4-(3-methylpiperazin-1-yl)pyridin-3-amine]  15.8
17. Fc1cc2nccnc2cc1CNc1cncc(Cl)c1N1CCNCC1 [compound 052, 5-chloro-N-((7-fluoroquinoxalin-6-yl)methyl)-4-(piperazin-1-yl)pyridin-3-amine]  18.9
18. C[C@H]1CN(c2ccncc2NCc2cc3nccnc3cc2Cl)CCN1 [compound 057, (S)—N-((7-chloroquinoxalin-6-yl)methyl)-4-(3-methylpiperazin-1-yl)pyridin-3-amine]  22.3
19. Fc1cc2nccnc2cc1CNc1cnccc1N1CCNCC1 [compound 050, N-((7-fluoroquinoxalin-6-yl)methyl)-4-(piperazin-1-yl)pyridin-3-amine]  23.5
20. C[C@@H]1CNCCN1c1c(Cl)cncc1NCc1ccc2nccnc2c1 [compound 026, (R)-5-Chloro-4-(2-methylpiperazin-1-yl)-N-(quinoxalin-6-ylmethyl)pyridin-3-amine]  27.2
21. Fc1cc(CNc2cnccc2OC2CNC2)cc2nccnc12 [compound 028, 4-(Azetidin-3-yloxy)-N-((8-fluoroquinoxalin-6-yl)methyl)pyridin-3-amine]  33
22. Fc1cc(N2CCNCC2)c(NCc2ccc3nccnc3c2)cn1 [compound 024, 6-Fluoro-4-(piperazin-1-yl)-N-(quinoxalin-6-ylmethyl)pyridin-3-amine]  35.1
23. Clc1cc2nccnc2cc1CNc1cnccc1OC1CNC1 [compound 029, 4-(Azetidin-3-yloxy)-N-((7-chloroquinoxalin-6-yl)methyl)pyridin-3-amine]  41.3
24. C[C@H]1CN(c2c(Cl)cncc2NCc2ccc3nccnc3c2)CCN1 [compound 025, (S)-5-Chloro-4-(3-methylpiperazin-1-yl)-N-(quinoxalin-6-ylmethyl)pyridin-3-amine]  42.6
25. c1cc(OC2CNC2)c(NCc2ccc3nccnc3c2)cn1 [compound 022, 4-(Azetidin-3-yloxy)-N-(quinoxalin-6-ylmethyl)pyridin-3-amine]  43.2
26. Clc1cncc(NCc2ccc3nccnc3c2)c1OC1CNC1 [compound 027, 4-(Azetidin-3-yloxy)-5-chloro-N-(quinoxalin-6-ylmethyl)pyridin-3-amine]  49.4
27. Cc1cncc(NCc2ccc3nccnc3c2)c1N1CCNCC1 [compound 023, 5-Methyl-4-(piperazin-1-yl)-N-(quinoxalin-6-ylmethyl)pyridin-3-amine]  67.4
28. c1cc(O[C@@H]2CCNC2)c(NCc2ccc3nccnc3c2)cn1 [compound 021, (R)-4-(pyrrolidin-3-yloxy)-N-(quinoxalin-6-ylmethyl)pyridin-3-amine]  68.4

Same assay, conditions: Homo sapiens, HEK293, read-out: Fold induction 3.3 μM (HEK), 12G6 riboswitch, luciferase, HEK293, 3.3 μM

In order of falling fold induction at 3.3 µM:
1. c1cc(O[C@@H]2CCNC2)c(NCc2ccc3nccnc3c2)cn1 [compound 021, (R)-4-(pyrrolidin-3-yloxy)-N-(quinoxalin-6-ylmethyl)pyridin-3-amine]  62
2. C[C@@H]1CN(c2ccncc2NCc2ccc3nccnc3c2)CCN1 [compound 043, (R)-4-(3-methylpiperazin-1-yl)-N-(quinoxalin-6-ylmethyl)pyridin-3-amine]  31
3. C[C@H]1CN(c2ccncc2NCc2ccc3nccnc3c2)CCN1 [compound 042, (S)-4-(3-methylpiperazin-1-yl)-N-(quinoxalin-6-ylmethyl)pyridin-3-amine]  29
4. c1cc(O[C@H]2CCNC2)c(NCc2ccc3nccnc3c2)cn1 [compound 044, (S)-4-(pyrrolidin-3-yloxy)-N-(quinoxalin-6-ylmethyl)pyridin-3-amine]  22
5. C[C@H]1CNCCN1c1ccncc1NCc1ccc2nccnc2c1 [compound 041, (S)-4-(2-methylpiperazin-1-yl)-N-(quinoxalin-6-ylmethyl)pyridin-3-amine]  5

Same assay, conditions: Homo sapiens, HEK293, read-out: Fold induction 25 μM (HEK), 12G6 riboswitch, luciferase, HEK293, 25 μM

In order of falling fold induction at 25 µM:
1. CN(c1ccncc1NCc1ccc2nccnc2c1)C1CCNC1 (stereo not drawn) [compound 035, N^4-methyl-N^4-(pyrrolidin-3-yl)-N^3-(quinoxalin-6-ylmethyl)pyridine-3,4-diamine]  86.4
2. c1cc(N2CC3CC2CN3)c(NCc2ccc3nccnc3c2)cn1 (stereo not drawn) [compound 030, 4-(2,5-diazabicyclo[2.2.1]heptan-2-yl)-N-(quinoxalin-6-ylmethyl)pyridin-3-amine]  82.9
3. c1cc(N2CC3CNCC3C2)c(NCc2ccc3nccnc3c2)cn1 (stereo not drawn) [compound 032, 4-(hexahydropyrrolo[3,4-c]pyrrol-2(1H)-yl)-N-(quinoxalin-6-ylmethyl)pyridin-3-amine]  69.4
4. c1cc(NCc2ccc3nccnc3c2)c(N2CCNCC2)cn1 [compound 040, 3-(piperazin-1-yl)-N-(quinoxalin-6-ylmethyl)pyridin-4-amine]  69
5. c1cc(NC2CCNCC2)c(NCc2ccc3nccnc3c2)cn1 [compound 034, N^4-(piperidin-4-yl)-N^3-(quinoxalin-6-ylmethyl)pyridine-3,4-diamine]  53.2
6. c1cc(N2C3CNCC2C3)c(NCc2ccc3nccnc3c2)cn1 [compound 031, 4-(3,6-diazabicyclo[3.1.1]heptan-6-yl)-N-(quinoxalin-6-ylmethyl)pyridin-3-amine]  17.9
7. FC(F)(F)C1CN(c2ccncc2NCc2ccc3nccnc3c2)CCN1 (stereo not drawn) [compound 036, N-(quinoxalin-6-ylmethyl)-4-(3-(trifluoromethyl)piperazin-1-yl)pyridin-3-amine]  8.2
8. NC1CCN(c2ccncc2NCc2ccc3nccnc3c2)CC1 [compound 033, 4-(4-aminopiperidin-1-yl)-N-(quinoxalin-6-ylmethyl)pyridin-3-amine]  7.8
9. FC(F)(F)C1CNCCN1c1ccncc1NCc1ccc2nccnc2c1 (stereo not drawn) [compound 037, N-(quinoxalin-6-ylmethyl)-4-(2-(trifluoromethyl)piperazin-1-yl)pyridin-3-amine]  6.1
10. c1cc(N2CCOCC2)c(NCc2ccc3nccnc3c2)cn1 [compound 039, 4-morpholino-N-(quinoxalin-6-ylmethyl)pyridin-3-amine]  6
11. O=C1CN(c2ccncc2NCc2ccc3nccnc3c2)CCN1 [compound 038, 4-(3-((quinoxalin-6-ylmethyl)amino)pyridin-4-yl)piperazin-2-one]  2.9
